Source: patent US9193715B2, “Regulation of cholesterol homeostasis” (University of Notre Dam du Lac, priority 2012, dated 2015)

What was measured:
[1] = system: NPC1-mutant human fibroblasts (GM03123); assay: Filipin fluorescent imaging of intracellular cholesterol in NPC1-mutant human fibroblasts; assay type: cell-based
Experimental: GEX1A was evaluated for its ability to lower intracellular cholesterol levels in NPC1-mutant human fibroblasts (GM03123) through a previously described fluorescent imaging method (Pipalia et al., Automated microscopy screening for compounds that partially revert cholesterol accumulation in Niemann-Pick C cells. J. Lipid Res. (2006) 47: 284-301.).
Compounds described herein were evaluated for their ability to lower intracellular cholesterol levels in NPC1-mutant human fibroblasts (GM03123) by the fluorescent imaging methods of Pipalia and coworkers.

human endothelial cells = assay: Filipin staining of cholesterol in itraconazole-induced NPC-like phenotype; assay type: cell-based
Experimental: Itraconazole, an anti-fungal agent, interferes with cholesterol trafficking and induces an NPC-like phenotype in human endothelial cells. Itraconazole (200 nM) was administered in two experiments with 100 nM GEX1A and 10 nM GEX1A, respectively. Filipin is used as a histochemical stain to visualize cholesterol in the cell line.

| Structure (SMILES) | correction of the NPC1 phenotype ([1]; 10 nM to 100 nM, time points of 24-72 hours, postulated) | correction of the NPC1 phenotype (filipin staining in the cell) ([1]; GM03123 cells, fluorescent imaging, FIG. 2) | potency in the classic filipin assay relative to HDAC inhibitors ([1]; NPC cells, preliminary studies) | amount of cholesterol in cell line (filipin stain) (human endothelial cells; 10 nM GEX1A with itraconazole 200 nM) | amount of cholesterol in cell line (filipin stain) (human endothelial cells; 100 nM GEX1A with itraconazole 200 nM) | IC50 (human endothelial cells; Homo sapiens, Endothelial cell, filipin cholesterol staining, itraconazole 200 nM) |
| --- | --- | --- | --- | --- | --- | --- |
| CC[C@H](O)[C@@H](C)[C@H]1O[C@@H]1C[C@H](C)/C=C/C=C(\C)[C@H]1OC(=O)C[C@H](O)CC[C@@](C)(O)[C@@H](OC(C)=O)/C=C/[C@@H]1C [Pladienolide, pladienolide B] | significant correction of the NPC1 phenotype | – | – | – | – | – |
| CO[C@H]([C@@H](C)[C@H]1OC1(C)C[C@H](C)/C=C/C=C(\C)[C@H]1O[C@@H](CC(=O)O)CC[C@@H]1C)[C@@H](C)O (stereo partly drawn) [GEX1A] | – | correction of the NPC1 phenotype | equipotent to HDAC inhibitors | significant decrease | significant decrease | 6 nM |
